A short description of data set [1]: physchem. To be noted: 1-octanol/D2O, pH 7.4.
Data set [2] in a line: n-Octanol/water partition coefficient, log P of the compound by HPLC method.
Data set [3] is described as follows: physchem. To be noted: buffer, pH 7.4.

Where a name gives a salt, the structure may show the parent alone.

By logD is commonly meant the decadic logarithm of the distribution of all forms, ionised or not, between an organic phase and buffer at a given pH. Read a low logD as lower lipophilicity. Broadly, the logP is a log measure of how a compound divides between an organic and an aqueous phase. A lower logP goes with a more hydrophilic compound.

Regarding `CC(=O)Nc1ccc(O)cc1` [ACETAMINOPHEN], the logD in “physchem [1]” was 0.2. `Cc1ccc(O)cc1` [p-CRESOL] showed a logP in data set [2] (octanol/water) of 1.9. The log distribution coefficient (logD) in the data set “physchem [1]” is 2; in the data set “physchem [3]” it was 1.8. The compound `O=[N+]([O-])c1ccccc1O` [NITROPHENOLATE] yielded a logP in data set [2] (n-octanol/water) of 1.8. Also, the logD in “physchem [1]” is 1.5.

In data set [2] (n-octanol/water), `Clc1ccccc1` [CHLOROBENZENE] displayed a logP of 2.8. For the same compound, the logD in the data set “physchem [1]” was found to be 2.6; in “physchem [3]”, 2.9. The like results for `CCC(C)=O` [BUTANONE] were, in that order, 0.3, 0.4 and 0.3. In data set [2] (n-octanol/water), `c1ccc2c(c1)ccc1ccccc12` returned a lipophilicity (logP) of 4.5. Moreover, the logD in the data set “physchem [3]” was found to be 4.5. For `Oc1ccccc1` [PHENOL], the values for the pH-dependent lipophilicity (logD) in the data set “physchem [1]” and in the data set “physchem [3]” were 1.2 and 1.3, respectively. The compound `COc1ccc(O)cc1` [MEQUINOL] displayed a lipophilicity (logP) in data set [2] (n-octanol/water) of 1.3. Besides, the figures for the pH-dependent lipophilicity (logD) in “physchem [1]” and in “physchem [3]” were 0.8 and 1.3, respectively. With `CC(=O)Nc1ccccc1` [ACETANILIDE], the lipophilicity (logP) in data set [2] (octanol/water) came to 1. Further, the logD in the data set “physchem [1]” amounted to 0.7; in “physchem [3]”, 1.2. As to `Nc1ccc(Cl)cc1` [4-CHLOROANILINE], the log distribution coefficient (logD) in “physchem [1]” was 1.8.

As for `OCc1ccccc1` [BENZYL ALCOHOL], in the data set “physchem [1]”, the logD worked out at 0.9. In “physchem [1]”, `CC(=O)c1ccccc1` [ACETOPHENONE] had a log distribution coefficient (logD) of 1.7. Take `Cc1ccc(CO)cc1`: the lipophilicity (logP) in data set [2] (n-octanol/water) was 1.6. For the same compound, the logD in “physchem [1]” was 1.4; in “physchem [3]”, 1.8. Consider `CCOC(=O)c1ccccc1` [ETHYL BENZOATE], for which the log distribution coefficient (logD) in “physchem [1]” amounted to 2.4. Take `COc1ccccc1` [ANISOLE]: the logD in “physchem [1]” and in the data set “physchem [3]” was 2.3 each time. For `c1ccc(-c2ccccc2)cc1` [BIPHENYL], in data set [2] (octanol/water), the log partition coefficient (logP) worked out at 4. In the data set “physchem [3]”, this compound registered a log distribution coefficient (logD) of 4. In the case of `N#Cc1ccccc1` [BENZONITRILE], the log partition coefficient (logP) in data set [2] (n-octanol/water) was 1.6. The same compound returned a logD in “physchem [1]” of 1.6. The compound `c1ccc(Oc2ccccc2)cc1` returned a log distribution coefficient (logD) in “physchem [1]” of 3.5. Take `c1ccc2ccccc2c1`: in the data set “physchem [3]”, the logD amounted to 3.4.

Consider `CCN(CC)CCOC(=O)c1ccc(N)cc1` [PROCAINE HYDROCHLORIDE], for which the logD in “physchem [1]” is -0.4. In the data set “physchem [1]”, `COC(=O)c1ccccc1` [METHYL BENZOATE] registered a logD of 1.9.

These data come from ChEMBL document CHEMBL3870346, “Development of a simple proton nuclear magnetic resonance-based procedure to estimate the approximate distribution coefficient at physiological pH (logD7.4): Evaluation and comparison to existing practices” (Bioorg Med Chem Lett, 2017).
